In patent US20250049776A1, “AUTOPHAGY INDUCING COMPOUNDS AND USES THEREOF, IN PARTICULAR FOR A SYSTEMIC TREATMENT OF DISEASES AND CONDITIONS” (Samsara Therapeutics Inc., priority 2021, published 2025):
Where a name gives a salt, the structure may show the parent alone.

Assays:
[1] = tested on: U2OS cell line stabling expressing RFP-eGFP-hLC3b; test: Tandem reporter assay (autophagic flux, RFP-only puncta); assay type: cell-based; conditions: Homo sapiens, RFP-only puncta as percentage of DMSO-treated control, 24 hours; for activity at 1 µM: read-out: Autolysosome % DMSO activity (compound concentration of 1 μM); for activity at 10 µM: read-out: Autolysosome % DMSO activity (compound concentration of 10 μM)
Method: Selected compounds of this invention were also assessed for their ability to stimulate autophagy using a U20S cell line stabling expressing RFP-eGFP-hLC3b (a tandem reporter cell line). During the process of autophagy, the cargo to be degraded is first enveloped by organelles called autophagosomes. These autophagosomes then fuse with lysosomes, causing them to become acidified and their digestive enzymes to become activated. The term “autophagic flux” is used to represent the dynamic process of autophagy: autophagic flux refers to the whole process of autophagy, including autophagosome formation, maturation, fusion with lysosomes, subsequent breakdown and the release of macromolecules back into the cytosol (Zhang X J, Chen S, Huang K X, Le W D. Why should autophagic flux be assessed? Acta Pharmacol Sin. 2013 May; 34(5): 595-9. doi: 10.1038/aps.2012.184. Epub 2013 Mar. 11). Compounds that stimulate autophagic flux stimulate the dynamic process of autophagy (the whole process of autophagy).
LC3b is a protein found in the membrane of autophagosomes which has been used to generate genetic reporters of autophagy in cells. In these systems a tandem fusion of LC3b is engineered with two fluorescent proteins of different wavelengths: one which is acid sensitive (for example eGFP, which fluoresces green) and the other which is acid insensitive (for example RFP, which fluoresces red). Cells expressing RFP-eGFP-hLC3b can be examined using fluorescent microscopy: the autophagosomes present will fluoresce in both channels (either yellow in an overlay of both channels or puncta that are present in both the individual red and green channels) but the autolysosomes present will fluoresce in the RFP (red) channel only. Using a fluorescent microscope, the number of autophagosomes and autolysosomes can be counted, allowing for the monitoring of both the induction of autophagy (total puncta count) and the rate of autophagic flux (ratio of red-only to red-and-green puncta). The influence of small molecules on autophagy induction and flux can be assessed using this system by comparison to a non-treated control.
Representative Procedure: Human osteosarcoma U2OS cells stably expressing RFP-eGFP-hLC3b were seeded (10,000 cells/well) into a 96-well glass-bottom plate (Cell Carrier Ultra, Perkin Elmer) in DMEM Glutamax media (Gibco) supplemented with 10% Fetal Bovine Serum (FBS) and antibiotics (100 u/ml penicillin, 100 μg/ml streptomycin, Invitrogen), then incubated overnight in a humified atmosphere at 37° C. and 5% CO2. The cells were then treated with the compounds of interest, dissolved in DMSO, in a duplicated 5- or 10-point dose-response. 8 wells were treated with an equivalent volume of DMSO, 4 with 0.3 μM torin-1 as a positive control (MCE) and 4 wells with 0.4 μM torin-1 plus 0.2 μM bafilomycin (MCE) as a control for flux inhibition. The cells were returned to the incubator and the treatment continued for 24 hours. After treatment, the media was aspirated off and the cells fixed with a solution of 4% formaldehyde+1% glutaraldehyde (Sigma) in dPBS (plus magnesium and calcium, Gibco).
Fixation was allowed to proceed for 15 minutes at room temperature then the fixative solution discarded and replaced with PBS (Gibco) plus Hoescht 33342 ([…], Sigma). After 30 minutes the plates were imaged on an Opera Phenix confocal microscope (Perkin-Elmer) using a 40× water objective, collecting using DAPI, mCherry and GFP channels. Cells were detected based upon the staining of their nuclei with DAPI using the Harmony image analysis software (Perkin-Elmer) and the number of autophagosomes (GFP and RFP puncta) and autolysosomes (RFP only puncta) per cell were counted using the spot picking function within the software.

[2] = tested on: Human osteosarcoma U20S cells; test: Assay to measure lysosome and autolysosome formation (acidic vesicle formation, LysoView/LysoTracker staining); assay type: cell-based; conditions: Homo sapiens; U2OS cells, concentration of 0.8 μM; read-out: Activity (percentage increase in acidic vesicle formation over the DMSO-treated control), Table 2
Outline: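 U2OS cells treated with compounds in DMSO for 24 h, then stained 45 min at 37 °C with 1× LysoView 633 or 50 nM LysoTracker Deep Red, with Hoechst nuclear counterstain. Live-cell fluorescence imaging at 37 °C; acidic vesicle formation judged against DMSO-treated control.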

**Q.** `CC(C)N(C(=O)c1csc(-c2cnn(-c3ccccc3)c2)n1)C1CCNCC1` [Compound 163, N-isopropyl-2-(1-phenyl-1H-pyrazol-4-yl)-N-(piperidin-4-yl)thiazole-4-carboxamide hydrochloride] was tested. Which activity at 1 µM [1] did it give?
**A.** Its activity at 1 µM is 144%.

**Q.** And the activity at 10 µM [1]?
**A.** The activity at 10 µM was 187%.

**Q.** And the activation at 0.8 µM [2]?
**A.** Its activation at 0.8 µM is 10 to 30%.

**Q.** `CCCN(C(=O)c1csc(-c2cnn(-c3ccccc3)c2)n1)[C@@H]1CCNC1` [Compound 171, (R)-2-(1-phenyl-1H-pyrazol-4-yl)-N-propyl-N-(pyrrolidin-3-yl)thiazole-4-carboxamide hydrochloride] was tested. Which activity at 1 µM [1] did it give?
**A.** The activity at 1 µM was 200%.

**Q.** What about the activity at 10 µM [1] of the same compound?
**A.** Its activity at 10 µM is 294%.

**Q.** And the activation at 0.8 µM [2]?
**A.** Its activation at 0.8 µM is 10 to 30%.
